Measurements: the supplement of paper PMC10307832

Tests used:
Test in all cases: relative viability (nuclei count vs DMSO), 5 days (fraction); higher = more cells survive
[1] = compound: COc1cccc2c1C(=O)c1c(O)c3c(c(O)c1C2=O)C[C@@](O)(C(=O)CO)C[C@@H]3O[C@H]1C[C@H](N)[C@H](O)[C@H](C)O1 [Doxorubicin] + COc1cccc2cc(-c3nc([C@H]4CC[C@H](C(=O)O)CC4)n4ncnc(N)c34)[nH]c12 [OSI-027] (partner 0.5 µM)
How it was run: (§1)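 Lung cancer cell lines were pin-tool dosed in 1536-well plates on the day after seeding, with either a lone drug or a fixed anchor-drug dose plus five library-drug doses (not always all listed) in √10 steps. Nuclei were counted on 4× images after 5 days. Relative viability is the ratio of treated-well to vehicle-well nuclei counts, with each value a median of duplicate plates.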

[2] = compound: COc1cccc2c1C(=O)c1c(O)c3c(c(O)c1C2=O)C[C@@](O)(C(=O)CO)C[C@@H]3O[C@H]1C[C@H](N)[C@H](O)[C@H](C)O1 [Doxorubicin] + CC(=O)c1c(C)c2cnc(Nc3ccc(N4CCNCC4)cn3)nc2n(C2CCCC2)c1=O [Palbociclib] (partner 0.5 µM)
How it was run: as §1

[3] = compound: COC1=C(C=C(C=C1)C2=CC3=NC=CN3C(=N2)NC4=C(C=CC=N4)C(=O)N)OC [BAY61-3606] + N=C(N)NC(=N)NCCc1ccccc1 [Phenformin] (partner 250 µM)
How it was run: as §1

[4] = compound: COc1cccc2c1C(=O)c1c(O)c3c(c(O)c1C2=O)C[C@@](O)(C(=O)CO)C[C@@H]3O[C@H]1C[C@H](N)[C@H](O)[C@H](C)O1 [Doxorubicin] + CCNC(=O)c1noc(-c2cc(C(C)C)c(O)cc2O)c1-c1ccc(CN2CCOCC2)cc1 [Luminespib] (partner 0.01 µM)
How it was run: as §1

UMC-11
relative viability ([1]; first compound 0.001 µM): 0.514
relative viability ([1]; first compound 0.003162 µM): 0.425
relative viability ([1]; first compound 0.01 µM): 0.482
relative viability ([1]; first compound 0.03162 µM): 0.436
relative viability ([1]; first compound 0.1 µM): 0.368
relative viability ([2]; first compound 0.001 µM): 0.378
relative viability ([2]; first compound 0.003162 µM): 0.339
relative viability ([2]; first compound 0.01 µM): 0.314
relative viability ([2]; first compound 0.03162 µM): 0.256
relative viability ([2]; first compound 0.1 µM): 0.325
relative viability ([3]; first compound 0.02 µM): 0.333
relative viability ([3]; first compound 0.06325 µM): 0.339
relative viability ([3]; first compound 0.2 µM): 0.334
relative viability ([3]; first compound 0.6325 µM): 0.332
relative viability ([3]; first compound 2 µM): 0.298
relative viability ([4]; first compound 0.001 µM): 0.998
relative viability ([4]; first compound 0.003162 µM): 1.12
relative viability ([4]; first compound 0.01 µM): 0.943
relative viability ([4]; first compound 0.03162 µM): 0.642
relative viability ([4]; first compound 0.1 µM): 0.601
